Like-named read-outs stand apart in the source and are kept apart here.
How the values were obtained:
medulloblastoma cells = assay: tritiated thymidine incorporation assay in medulloblastoma cells; format: cell-based, mouse; conditions: typical assay
Method: In order to test the effects of cAMP agonists on the proliferation of Hh-pathway tumor cells, primary medulloblastoma cell cultures were similarly treated with forskolin or control vehicle. From 2-3 DIV, bromodeoxyuridine (BrdU) was then added to the cultures, to label proliferating cells. On 3 DIV, cells were fixed with paraformaldehyde. Cells were then immunostained with an antibody to BrdU to identify cells that had been proliferating, and counterstained with bisbenzimide to determine total cell number. The number of total and BrdU(+) cells were then scored in multiple fields in wells of each condition, to determine the percent proliferating cells under different treatments. The scorer was blinded as to the treatments of the cells. […] Similar results were obtained when proliferation was measured using a tritiated thymidine incorporation assay, and other cAMP agents were also found to be effective.

Hh signaling = assay: Xgal staining of subcutaneous medulloblastoma tumors after drug infusion; format: in vivo, mouse; conditions: tumor infusion for several days, compared to control (water)
Excerpt: (§1) To determine whether Hh signaling inhibitors can inhibit tumor growth in vivo, medulloblastoma cells from ptc-1 knockout mice were transplanted subcutaneously into athymic (“nude”) mice. After allowing time for the tumor cells to grow at the injection site, the transplanted mice were divided into groups, and treated with either control vehicle, or cAMP agonist drugs. In one set of experiments, tumors were infused with either H-forskolin, or water as a control. After several days of drug infusion, the mice were sacrificed, and the tumors were sectioned for histology. The transplanted medulloblastoma cells from the ptc knockout mice contain a lacZ transgene (encoding β-galactosidase), the expression of which is induced by Hh signaling. Therefore, the level of β-galactosidase in these cells indicates their level of […] signaling. Thus, in order to determine how effectively the infused drug inhibited Hh signaling in the tumor, the tumor sections were stained for β-galactosidase activity using the substrate Xgal, which stains expressing cells blue.

[1] = test system: medulloblastoma cells from ptc-1 knockout mice; assay: growth of subcutaneous-transplanted medulloblastoma tumors in nude mice; format: in vivo, mouse
Excerpt: as §1
In order to determine whether Hh pathway inhibitors can inhibit tumor growth in vivo, cAMP agonists were administered to mice that, as above, had subcutaneous medulloblastoma tumors. In one experiment, one group of mice received daily intraperitoneal injections of forskolin, while control mice received equivalent injections of vehicle (DMSO). The volumes of the tumors were regularly determined by measuring tumor dimensions with a caliper. In the mice treated with DMSO control, the tumors grew much more rapidly than in the mice treated with forskolin. […] In a similar experiment, H-forskolin or control vehicle was administered systemically to mice continuously, via an osmotic minipump that was implanted subcutaneously (and replaced regularly). Again in this experiment (FIG. 13), tumor size was smaller in the H-forskolin-treated mice than in the control mice.

hair follicles = assay: hydron pellet implantation into ptc-1 lacZ skin punches, 8 days of culture; format: cell-based, mouse; conditions: implanted pellets, Shh supplied with the culture medium
Method: FIG. 19 depicts hydron pellet implantation into 3-day mouse ptc-1 lacZ skin punches after 8 days of culture. Ethanol, hydron polymer, and Shh or forskolin in PBS, respectively, were mixed according to the manufacturer's instructions, poured in 2 mm pellet casts and dried/UV-irradiated over night. Alternatively, 3 mg/ml of octylated Shh protein was added to the culture medium (on day 1, 3 and 5) for the medium control as well as the forskolin-pellet implant. 3-day-old skin was harvested from the backs of mouse pups transgenic for ptc-1 lacZ, as identified by lacZ reporter detection using tails, by standard procedures. 6 mm skin punches were taken using Miltex skin punches and incubated for 60 min. Pellets were inserted by carefully separating the dermal from the epidermal layer using forceps. Cultures were grown for 8 days, fixed in lacZ fixative according to standard protocols, rinsed and stained for lacZ over night at 37° C.
Results: (A) Untreated control, showing a small number of short hairs. […] Hair length and thickness of the dermis thickness are increased as well. Ptc-lacZ, a reporter gene indicative of Shh signaling is induced in follicular as well as basal cells (blue stain), although partially obscured by melanin. […] Note the highly localized area of follicle induction, corresponding to the area adjacent to bead insertion. […]

[2] = test system: medulloblastoma tumor cells; format: cell-based, mouse
Method: These medulloblastoma cells were derived from tumors that arose in the brains of mice heterozygous for an inactivating mutation in the ptc gene (“heterozygous ptc knockout mice”). Mutation of ptc leads to inappropriate activation of the Hh signaling pathway, and in these ptc knockout mice, the ptc mutation results in the occurrence of medulloblastomas. The medulloblastoma tumor cells were placed into primary culture in neuronal culture medium (Basal Medium of Eagle, with 10% calf serum, 25 mM KCl, and 2 mM glutamine). Cells were typically seeded at 0.5 or 1.0×10^6 cells/well of a 24 well plate, in 0.5 ml of medium per well. […] From 2-3 DIV, bromodeoxyuridine (BrdU) was added to the cultures, to label proliferating cells. On 3 DIV, cells were fixed with paraformaldehyde. […] The numbers of total and BrdU(+) cells were then scored in multiple fields in wells of each condition, to determine the percent proliferating cells under different treatments. The scorer was blinded as to the treatments of the cells.
(§2) To determine the effects of cAMP agonist drugs on the Hedgehog (Hh) signaling pathway in tumor cells, medulloblastoma cells were grown in primary culture. These medulloblastoma brain tumors arose in mice heterozygous for an inactivating mutation in the ptc-1 gene (“heterozygous ptc knockout mice”). Mutation of ptc-1 leads to inappropriate activation of the Hh signaling pathway, and in these ptc-1 knockout mice, the ptc-1 mutation results in the occurrence of medulloblastoma. The medulloblastoma tumor cells were placed into primary culture in neuronal culture medium (Basal Medium of Eagle, with 10% serum, 25 mM KCl, and 2 mM glutamine). Cells were typically seeded at 0.5 or […] cells/well of a 24 well plate, in 0.5 ml of medium. One day after seeding (i.e., on 1 day in vitro, or DIV), cells were treated with forskolin (50 μM final), or an equal amount of vehicle (0.1% DMSO). On 3 DIV, RNA was isolated from the cells, and the expression of the Hh-response gene gli-1 was determined by RT-PCR analysis.
In order to test the effects of cAMP agonists on the proliferation of Hh-pathway tumor cells, primary medulloblastoma cell cultures were similarly treated with forskolin or control vehicle. From 2-3 DIV, bromodeoxyuridine (BrdU) was then added to the cultures, to label proliferating cells. On 3 DIV, cells were fixed with paraformaldehyde. […] The number of total and BrdU(+) cells were then scored in multiple fields in wells of each condition, to determine the percent proliferating cells under different treatments. The scorer was blinded as to the treatments of the cells.

gli-1 = gli-1 expression by RT-PCR in primary medulloblastoma cells; format: cell-based, mouse; conditions: 50 μM, RNA on 3 DIV
Method: as §2

[3] = test system: basal cell carcinoma tissue; assay: subcutaneous injection near basal cell carcinoma, histology; format: in vivo, mouse; conditions: subcutaneous near the tumor, once a day, 21 days
Method: Experiments were conducted to determine the effect of cAMP elevating agents on basal cell carcinoma tissue. A solution of forskolin (50 mM) in ethanol was diluted 1:2 with cremophor (resulting in 50% ethanol/50% cremophor), then diluted 1:5 with PBS or normal saline (resulting in final 10% ethanol/10% cremophor/80% PBS or saline. The solution was administered by subcutaneous injection at different sites near the tumor (e.g., within a few millimeters of the margin), but not into the tumor itself. Treatment continued once a day every 24 hours for 21 days, 1 μl compound/g weight. After treatment, tumor size was measured, and the tumor was removed and analyzed by histology to determine morphological changes. Untreated BCC tissue is depicted in FIG. 16, and forskolin-treated tissue is depicted in FIGS. 17-18.

[4] = test system: hair follicle development; assay: topical application on newborn Ptc-lacZ mice, skin histology; format: in vivo, mouse; conditions: 5 mM in DMSO topical, twice a day, 7 days
Method: This effect may be due to the inhibition of the Hh pathway by forskolin, as the Hh pathway plays a critical role in hair follicle development (FIG. 14). Postnatal day 2 mouse pups were used for this experiment. For each pup, 5 μl of DMSO or forskolin in DMSO (5 mM) was applied on the center of the back using a micro-pipette tip. The same procedure is repeated twice, with a total of […] compound applied each time. The procedure was performed on the same animal twice a day for a period of 7 days. The pups were then sacrificed and the skin was taken from the applied area for histology analysis. H&E staining was performed on the paraffin embedded sections.

hair development = assay: injection of pregnant female mouse, hair development in the fetus; format: in vivo
Method: For these experiments, 20 μl of forskolin in DMSO (50 mM) was injected into a pregnant female mouse daily for E14.5 to E17.5 intraperitoneally. The mouse was sacrificed at E17.5 and the fetuses were removed for gross inspection. The skin from each fetus was processed for H&E staining.

[5] = 10 μM, BrdU 2-3 DIV, fixed 3 DIV, typical experiment

## C=CC1(C)CC(=O)C2(O)C(C)(O1)C(OC(=O)CCCN1CCN(C)CC1)C(O)C1C(C)(C)CCC(O)C12C (centres unmarked) [H-forskolin, 7-deacetyl-7-[O-(N-methylpiperazino)-gamma-butyryl]-forskolin]
Medulloblastoma cells
  inhibition of tritiated thymidine incorporation: 91%
Hh signaling
  Xgal staining of tumors: reduced Xgal staining
[1]; systemic, continuous via subcutaneous osmotic minipump, versus control mice
  tumor size: smaller

## forskolin
Medulloblastoma cells
  inhibition of tritiated thymidine incorporation: 93%
Hair follicles
  hair follicles, hair length, pigmentation and dermis thickness: reduction of hair follicles, hair length, pigmentation and dermis thickness to levels comparable to the control
[2]; forskolin 50 μM
  inhibition of proliferation of the medulloblastoma cells: strongly inhibit proliferation
[2]; forskolin 50 μM versus DMSO control
  inhibition of proliferation: 95%
[2]; forskolin 50 μM, typical experiment (FIG. 5)
  percent proliferation (BrdU(+) cells): 0.4%
gli-1
  gli-1 expression: strongly inhibit gli-1 expression
Hh signaling
  Xgal staining of tumors: lower Xgal staining
[1]; daily intraperitoneal injections
  tumor regression in one treated mouse: regressed, disappeared, and has not reappeared in over 60 days
[1]; daily intraperitoneal injections, versus DMSO
  tumor growth: did not grow excessively large
[3]
  BCC tissue histology: tumor shrinkage and/or cell death
[4]
  hair density and hair follicle structure: decrease of hair density and abnormalities of hair follicle structure
Hair development; 20 μl of 50 mM in DMSO intraperitoneally daily E14.5 to E17.5
  hair development in the fetus: severe disruption of hair development
Hair development; 20 μl of 50 mM in DMSO intraperitoneally daily E14.5 to E17.5, some fetuses
  number of hair follicles in fetal skin: great reduction of the number of hair follicles

## CC1=C2C[C@H]3[C@@H](CC=C4C[C@@H](O)CC[C@@]43C)[C@@H]2CC[C@]12O[C@@H]1C[C@H](C)CN[C@H]1[C@H]2C [cyclopamine]
[2]; 10 μM
  inhibition of proliferation of the medulloblastoma cells: strongly inhibit proliferation

## C[C@H]1CC[C@]2(NC1)O[C@H]1C[C@H]3[C@@H]4CC[C@H]5C[C@@H](O)CC[C@]5(C)[C@H]4CC[C@]3(C)[C@H]1[C@@H]2C [tomatidine]
[2]; [5]
  percent proliferation (BrdU(+) cells): 5.9%

## CC1=C2C(=O)[C@H]3[C@@H](CC=C4C[C@@H](O)CC[C@@]43C)[C@@H]2CC[C@]12O[C@@H]1C[C@H](C)CN[C@H]1[C@H]2C [jervine]
[2]; 10 μM
  inhibition of proliferation of the medulloblastoma cells: strongly inhibit proliferation
[2]; [5]
  percent proliferation (BrdU(+) cells): 0.2%

Reference: patent US6686388B2, “Regulators of the hedgehog pathway, compositions and uses related thereto” (priority 1999, dated 2004)
